Assay results published in ChEMBL document CHEMBL1201862, “PubChem BioAssay data set” (2004).
Activity calls are given as the source filed them.

Columns and labels:
Escherichia coli = assay: microbe, parasite or virus in culture
Cytochrome P450 2C9 [1] = molecular target: T1, Cytochrome P450 2C9 (Homo sapiens, UniProt P11712)
[2] = molecular target: T2, Latent membrane protein 1 (Human herpesvirus 4 (strain B95-8), UniProt P03230); assay: TES1-eGFP NF-kB reporter inhibition versus Tet-On dsRED, dose response, selectivity assay for LMP1 NF-kB inhibitor project, imaging, HEK293T, dual-color eGFP/dsRED, cherry-picks (AID 588398); type: functional, cell-based
T2 sequence (P03230 whole entry): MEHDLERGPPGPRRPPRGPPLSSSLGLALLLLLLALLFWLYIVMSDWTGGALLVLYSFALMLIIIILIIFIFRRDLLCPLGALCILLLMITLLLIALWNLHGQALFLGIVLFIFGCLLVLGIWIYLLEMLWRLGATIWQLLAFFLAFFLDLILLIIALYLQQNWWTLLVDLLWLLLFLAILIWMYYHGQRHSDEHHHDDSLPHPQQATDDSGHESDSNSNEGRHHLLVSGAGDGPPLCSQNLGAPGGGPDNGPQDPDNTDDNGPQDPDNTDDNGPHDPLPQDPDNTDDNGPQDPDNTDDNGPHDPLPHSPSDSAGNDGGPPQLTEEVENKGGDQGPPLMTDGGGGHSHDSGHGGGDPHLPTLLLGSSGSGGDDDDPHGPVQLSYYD

Cytochrome P450 2C9 [3] = molecular target: T1, Cytochrome P450 2C9; remark: listed apart in the source
HEK293 = assay: inhibitors of LMP1-driven NF-kB reporter, dose response, cell-based, HEK293, luciferase, cherry-pick (AID 588343); type: functional; settings: Homo sapiens
[4] = inhibitors of firefly luciferase expression or activity, dose response, H4 neuroglioma cells, luminescence (AID 1990); type: functional, cell-based
[5] = inhibitors of SNCA 5'UTR-driven reporter translation, confirmation, H4 neuroglioma cells, luminescence (AID 1988); type: functional, cell-based
[6] = Luminescence Cell-Based Dose Response HTS to Identify Inhibitors of 5'UTR Stem-Loop Driven Prion Protein mRNA Translation in H4 Neuroglioblastoma Cells. [Related pubchem assays: 1827 (Project Summary), 1813 (Primary HTS)]; type: functional
Vero = assay: cells; type: functional, cell-based; settings: Chlorocebus sabaeus
[7] = molecular target: T3, Short transient receptor potential channel 4 (Mus musculus, UniProt Q9QUQ5); assay: mouse TRPC4 channel activators, dose response, cell-based, HEK293 TRPC4/mu-opioid, Fluo-4 calcium (AID 434937); type: functional
T3 sequence (Q9QUQ5 whole entry): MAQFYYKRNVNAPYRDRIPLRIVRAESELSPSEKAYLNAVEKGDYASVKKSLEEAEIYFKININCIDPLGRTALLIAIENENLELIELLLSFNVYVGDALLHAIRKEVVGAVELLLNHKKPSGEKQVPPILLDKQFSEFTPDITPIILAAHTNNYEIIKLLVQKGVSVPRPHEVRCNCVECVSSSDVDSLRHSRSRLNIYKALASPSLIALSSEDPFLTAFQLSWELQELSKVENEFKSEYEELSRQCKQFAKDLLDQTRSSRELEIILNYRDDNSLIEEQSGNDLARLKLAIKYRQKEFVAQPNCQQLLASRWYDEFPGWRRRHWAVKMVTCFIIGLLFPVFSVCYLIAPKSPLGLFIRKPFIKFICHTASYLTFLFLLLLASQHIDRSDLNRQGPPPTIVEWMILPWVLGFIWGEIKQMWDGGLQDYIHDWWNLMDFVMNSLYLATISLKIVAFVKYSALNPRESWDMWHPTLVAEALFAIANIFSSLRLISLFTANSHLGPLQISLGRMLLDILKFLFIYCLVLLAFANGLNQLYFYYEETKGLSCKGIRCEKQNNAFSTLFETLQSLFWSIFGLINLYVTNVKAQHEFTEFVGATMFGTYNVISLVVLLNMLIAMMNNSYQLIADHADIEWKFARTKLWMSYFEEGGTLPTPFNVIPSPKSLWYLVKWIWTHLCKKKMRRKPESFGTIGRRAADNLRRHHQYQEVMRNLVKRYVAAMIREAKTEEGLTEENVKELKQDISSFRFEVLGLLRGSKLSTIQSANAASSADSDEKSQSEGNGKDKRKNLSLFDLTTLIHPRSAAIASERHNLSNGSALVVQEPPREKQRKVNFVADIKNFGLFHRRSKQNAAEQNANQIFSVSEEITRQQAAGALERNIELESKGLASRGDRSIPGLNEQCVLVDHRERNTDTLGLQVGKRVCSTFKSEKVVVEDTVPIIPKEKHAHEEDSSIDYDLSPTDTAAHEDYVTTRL

[8] = inhibitors of clade B AD8 Env fusion, dose response, cell-based, cherry-pick (AID 652062); type: functional;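 also: luciferase signal from cell-cell fusion driven by HIV-1 clade B AD8 Env; potency is for inhibitors of fusion seen as a drop in luminescence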
[9] = inhibitors of HIV Env-driven cell fusion, dose response, cherry-pick (AID 652057); type: functional, cell-based
[10] = ZM109 Env clade C HIV-1 fusion inhibitors, dose response, HeLa effector, CEM target cells, luciferase, cherry-pick (AID 652058); type: functional, cell-based
[11] = CEM21 lymphoblast cell cytotoxicity, dose response, cytotoxicity control for viral fusion inhibitor project, CellTiter-Glo luminescence, cherry-picked (AID 652042); type: functional, cell-based;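 also: potency for signal decrease meaning cytotoxicity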
[12] = off-target signal loss in HeLa-CEM21 co-culture – HeLa F-luc CTL cells, cherry-picked, counter-screen for HIV-1 Env fusion inhibitor project, dose response (AID 652040); type: functional, cell-based;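 also: potency for signal decrease marking cytotoxic or nonspecific inhibition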
[13] = molecular target: T4, Type-1 angiotensin II receptor (Homo sapiens, UniProt P30556); assay: AT1 receptor antagonists, dose response, selectivity assay for APJ receptor antagonist project, cell-based, uHTS hits (AID 463214); type: functional;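 also: antagonist potency against angiotensin II stimulated AT1 response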
T4 sequence (P30556 whole entry): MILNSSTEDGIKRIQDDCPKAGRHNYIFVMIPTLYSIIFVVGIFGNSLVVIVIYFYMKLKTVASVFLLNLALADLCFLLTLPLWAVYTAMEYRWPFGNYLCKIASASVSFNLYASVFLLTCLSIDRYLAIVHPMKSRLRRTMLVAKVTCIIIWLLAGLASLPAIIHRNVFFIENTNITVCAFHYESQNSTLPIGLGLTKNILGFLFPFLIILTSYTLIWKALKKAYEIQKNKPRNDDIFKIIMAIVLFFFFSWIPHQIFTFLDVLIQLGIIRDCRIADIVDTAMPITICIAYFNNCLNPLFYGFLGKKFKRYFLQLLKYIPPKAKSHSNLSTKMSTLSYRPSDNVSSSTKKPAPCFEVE

Beta-galactosidase = Beta-galactosidase (Escherichia coli, UniProt Q8VNN2); assay: PubChem AID 485352; type: functional
[14] = molecular target: T3, Short transient receptor potential channel 4; assay: mouse TRPC4 channel inhibitors, dose response, cell-based, HEK293 TRPC4/mu-opioid, Fluo-4 calcium (AID 434942); type: functional;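 also: potency of inhibitors blocking the TRPC4 calcium response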

T1 sequence (P11712 whole entry): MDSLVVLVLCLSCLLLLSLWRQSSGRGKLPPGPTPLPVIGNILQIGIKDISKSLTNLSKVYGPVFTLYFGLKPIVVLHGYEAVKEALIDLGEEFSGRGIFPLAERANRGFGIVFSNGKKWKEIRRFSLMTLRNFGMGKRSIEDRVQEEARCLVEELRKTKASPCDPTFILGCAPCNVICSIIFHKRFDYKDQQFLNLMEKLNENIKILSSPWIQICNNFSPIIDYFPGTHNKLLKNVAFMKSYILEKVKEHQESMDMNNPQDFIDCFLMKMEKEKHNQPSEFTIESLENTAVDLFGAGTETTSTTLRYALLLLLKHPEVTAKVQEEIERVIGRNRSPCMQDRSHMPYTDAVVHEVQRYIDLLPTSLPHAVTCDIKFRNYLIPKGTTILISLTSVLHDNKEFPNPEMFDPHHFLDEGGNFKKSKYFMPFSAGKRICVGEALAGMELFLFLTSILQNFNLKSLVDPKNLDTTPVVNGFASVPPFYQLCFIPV
Beta-galactosidase, sequence (Q8VNN2 whole entry): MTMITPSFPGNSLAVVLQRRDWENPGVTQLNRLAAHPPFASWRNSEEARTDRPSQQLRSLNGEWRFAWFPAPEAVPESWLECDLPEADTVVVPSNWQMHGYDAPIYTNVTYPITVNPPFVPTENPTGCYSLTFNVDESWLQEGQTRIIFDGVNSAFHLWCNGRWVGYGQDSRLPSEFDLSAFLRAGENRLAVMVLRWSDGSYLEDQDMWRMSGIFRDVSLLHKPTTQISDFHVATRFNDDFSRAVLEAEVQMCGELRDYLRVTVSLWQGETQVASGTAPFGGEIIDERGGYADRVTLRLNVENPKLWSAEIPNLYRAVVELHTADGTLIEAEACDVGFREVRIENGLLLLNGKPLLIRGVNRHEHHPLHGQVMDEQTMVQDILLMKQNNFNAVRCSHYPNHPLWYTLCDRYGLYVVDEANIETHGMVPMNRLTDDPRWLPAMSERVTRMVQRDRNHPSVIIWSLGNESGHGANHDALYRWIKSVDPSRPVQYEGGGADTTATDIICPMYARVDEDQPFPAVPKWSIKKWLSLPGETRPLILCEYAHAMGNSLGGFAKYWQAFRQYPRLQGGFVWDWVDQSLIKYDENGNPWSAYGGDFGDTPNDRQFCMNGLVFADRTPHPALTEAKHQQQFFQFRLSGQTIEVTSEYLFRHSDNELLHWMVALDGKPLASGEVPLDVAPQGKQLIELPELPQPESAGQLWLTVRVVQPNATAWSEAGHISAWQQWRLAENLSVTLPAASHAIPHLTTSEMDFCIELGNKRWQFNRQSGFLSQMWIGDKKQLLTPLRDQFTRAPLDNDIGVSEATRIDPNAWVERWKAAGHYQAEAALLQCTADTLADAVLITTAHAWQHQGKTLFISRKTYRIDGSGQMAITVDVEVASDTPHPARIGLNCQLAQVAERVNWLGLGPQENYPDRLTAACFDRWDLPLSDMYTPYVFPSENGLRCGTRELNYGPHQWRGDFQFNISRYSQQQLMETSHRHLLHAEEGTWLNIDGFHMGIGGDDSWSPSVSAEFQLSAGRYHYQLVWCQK

Which AC50 (Escherichia coli) does the source give for `Cc1ccc(NC(S)=NCCC2=CCCCC2)cc1` here?
Its AC50 is 115 µM (active).

Which AC50 (Escherichia coli) does the source give for `Cn1c(N)c(C(=O)COC(=O)CCCN2C(=O)c3ccccc3C2=O)c(=O)n(C)c1=O` here?
Its AC50 is 31.9 µM (active).

Which AC50 (Cytochrome P450 2C9 [1]) does the source give for `NC(=O)c1nn(-c2ccccc2)c(=O)cc1O` here?
The AC50 was “inconclusive”.

For `O=C(NC1CCCc2ccccc21)c1ccc(O)nc1` (configuration not stated), which AC50 (Cytochrome P450 2C9 [1]) is on record?
Its AC50 is “inconclusive”.

For `O=C1/C(=C/c2cccnc2)SC(=S)N1Cc1ccco1`, which AC50 [2] is on record?
The AC50 was 39.5 µM (active).

What about the AC50 (Cytochrome P450 2C9 [3]) of the same compound?
Its AC50 is 6.31 µM (inconclusive).

And the AC50 (HEK293)?
Its AC50 is 0.758 µM (active).

Which EC50 [4] does the source give for `CC(C)(C)OC(=O)[C@H](Cc1ccccc1)NC(=O)c1[nH]cnc1C(=O)N1CCN(C(=O)OC(C)(C)C)CC1` here?
The EC50 was 61.6 µM (active).

What about the EC50 [5] of the same compound?
Its EC50 is 26.6 µM (active).

What about the EC50 [6] of the same compound?
Its EC50 is 20 µM (active).

And the IC50 (Vero)?
The IC50 was 18.3 µM (active).

Which EC50 [7] does the source give for `COc1ccc(C)c(NC(=O)NCCc2c[nH]cn2)c1` here?
The EC50 was 1.88 µM (active).

For `COc1cc2c(=O)n(CC3CCCO3)c(=O)n(CC(=O)Nc3cccc(Cl)c3)c2cc1OC` (configuration not stated), which AC50 [2] is on record?
The AC50 was 277 µM (active).

And the AC50 (HEK293)?
The AC50 was 84.3 µM (active).

What does the source list for `CNc1cccnc1C=NNC(N)=S`?
AC50 [2]: 6.42 µM (active); AC50 [8]: 1.94 µM (active); AC50 [9]: 0.457 µM (active); AC50 [10]: 0.805 µM (active); AC50 [11]: 5.69 µM (active); AC50 (HEK293): 2.43 µM (active); AC50 [12]: 9.89 µM (active)

For `O=C(c1ccco1)C(O)c1ccco1` (configuration not stated), which IC50 [13] is on record?
Its IC50 is 35.2 µM (not active).

What about the EC50 (Beta-galactosidase) of the same compound?
The EC50 was > 40 µM (inactive).

With `OC1(c2cccs2)C[N+](c2ccc(Cl)cc2)=C2CCCCN21` (configuration not stated) as the compound, how does the EC50 [14] read?
Its EC50 is 2.66 µM (active).

What about the IC50 (Vero) of the same compound?
The IC50 was 8.4 µM (active).

Which IC50 [13] does the source give for `Cc1noc(C)c1C(=O)NNc1ccc(C(C)C)cc1` here?
Its IC50 is 3.68 µM (active).

What about the EC50 (Beta-galactosidase) of the same compound?
The EC50 was > 40 µM (inactive).
